{"source": "PubChem BioAssay AID2060895", "about": "(Molecular Pharmacology Branch, DTP, NCI, 2025)", "system": "PDC 899932-113-R3-J6 complex spheroid viability", "experiment": "Anticancer human tumor 899932-113-R3-J6-PDC patient-derived melanoma cell line growth inhibition [RAS]", "settings": "for IC50: curve of first compound; for viability, T/C: stronger effect = lower value", "procedure,_shortened": "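Agents were tested in combination matrices in half-log decrements from a top concentration at or near clinical Cmax (10 microM if undetermined). Targets were multi-cell spheroids of tumour lines plus HUVEC and MSC stromal cells.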"}
{"compound": "C=CC(=O)N1CCN(c2nc(OCC3CCCN3C)nc3c(F)c(-c4nc(N)cc(C)c4C(F)(F)F)c(Cl)cc23)C(C)C1", "note": "(configuration not stated) + C#Cc1c(F)ccc2cc(O)cc(-c3ncc4c(N5CC6CCC(C5)N6)nc(OCC56CCCN5CC(F)C6)nc4c3F)c12;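 as to viability, T/C: spheroids exposed to agents for seven days before readout; 100% = DMSO vehicle control wells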", "values": [{"measurement": "IC50", "setting": "second compound 0.0316 µM", "value": "> 1000", "unit": "nM"}, {"measurement": "IC50", "setting": "second compound 0.1 µM", "value": "> 1000", "unit": "nM"}, {"measurement": "IC50", "setting": "second compound 0.316 µM", "value": "> 1000", "unit": "nM"}, {"measurement": "IC50", "setting": "second compound 1 µM", "value": "> 1000", "unit": "nM"}, {"measurement": "IC50", "setting": "second compound 3.16 µM", "value": "> 1000", "unit": "nM"}, {"measurement": "IC50", "setting": "second compound 10 µM", "value": "> 1000", "unit": "nM"}, {"measurement": "viability, T/C", "setting": "second compound 0.0316 µM, first compound 0.00316 µM", "value": 116, "unit": "%"}, {"measurement": "viability, T/C", "setting": "second compound 0.0316 µM, first compound 0.01 µM", "value": 107, "unit": "%"}, {"measurement": "viability, T/C", "setting": "second compound 0.0316 µM, first compound 0.0316 µM", "value": 101, "unit": "%"}, {"measurement": "viability, T/C", "setting": "second compound 0.0316 µM, first compound 0.1 µM", "value": 108, "unit": "%"}, {"measurement": "viability, T/C", "setting": "second compound 0.0316 µM, first compound 0.316 µM", "value": 110, "unit": "%"}, {"measurement": "viability, T/C", "setting": "second compound 0.0316 µM, first compound 1 µM", "value": 104, "unit": "%"}, {"measurement": "viability, T/C", "setting": "second compound 0.1 µM, first compound 0.00316 µM", "value": 112, "unit": "%"}, {"measurement": "viability, T/C", "setting": "second compound 0.1 µM, first compound 0.01 µM", "value": 106, "unit": "%"}, {"measurement": "viability, T/C", "setting": "second compound 0.1 µM, first compound 0.0316 µM", "value": 105, "unit": "%"}, {"measurement": "viability, T/C", "setting": "second compound 0.1 µM, first compound 0.1 µM", "value": 117, "unit": "%"}, {"measurement": "viability, T/C", "setting": "second compound 0.1 µM, first compound 0.316 µM", "value": 111, "unit": "%"}, {"measurement": "viability, T/C", "setting": "second compound 0.1 µM, first compound 1 µM", "value": 106, "unit": "%"}, {"measurement": "viability, T/C", "setting": "second compound 0.316 µM, first compound 0.00316 µM", "value": 112, "unit": "%"}, {"measurement": "viability, T/C", "setting": "second compound 0.316 µM, first compound 0.01 µM", "value": 115, "unit": "%"}, {"measurement": "viability, T/C", "setting": "second compound 0.316 µM, first compound 0.0316 µM", "value": 107, "unit": "%"}, {"measurement": "viability, T/C", "setting": "second compound 0.316 µM, first compound 0.1 µM", "value": 108, "unit": "%"}, {"measurement": "viability, T/C", "setting": "second compound 0.316 µM, first compound 0.316 µM", "value": 117, "unit": "%"}, {"measurement": "viability, T/C", "setting": "second compound 0.316 µM, first compound 1 µM", "value": 112, "unit": "%"}, {"measurement": "viability, T/C", "setting": "second compound 1 µM, first compound 0.00316 µM", "value": 120, "unit": "%"}, {"measurement": "viability, T/C", "setting": "second compound 1 µM, first compound 0.01 µM", "value": 108, "unit": "%"}, {"measurement": "viability, T/C", "setting": "second compound 1 µM, first compound 0.0316 µM", "value": 115, "unit": "%"}, {"measurement": "viability, T/C", "setting": "second compound 1 µM, first compound 0.1 µM", "value": 112, "unit": "%"}, {"measurement": "viability, T/C", "setting": "second compound 1 µM, first compound 0.316 µM", "value": 125, "unit": "%"}, {"measurement": "viability, T/C", "setting": "second compound 1 µM, first compound 1 µM", "value": 102, "unit": "%"}, {"measurement": "viability, T/C", "setting": "second compound 3.16 µM, first compound 0.00316 µM", "value": 129, "unit": "%"}, {"measurement": "viability, T/C", "setting": "second compound 3.16 µM, first compound 0.01 µM", "value": 113, "unit": "%"}, {"measurement": "viability, T/C", "setting": "second compound 3.16 µM, first compound 0.0316 µM", "value": 120, "unit": "%"}, {"measurement": "viability, T/C", "setting": "second compound 3.16 µM, first compound 0.1 µM", "value": 133, "unit": "%"}, {"measurement": "viability, T/C", "setting": "second compound 3.16 µM, first compound 0.316 µM", "value": 124, "unit": "%"}, {"measurement": "viability, T/C", "setting": "second compound 3.16 µM, first compound 1 µM", "value": 110, "unit": "%"}, {"measurement": "viability, T/C", "setting": "second compound 10 µM, first compound 0.00316 µM", "value": 118, "unit": "%"}, {"measurement": "viability, T/C", "setting": "second compound 10 µM, first compound 0.01 µM", "value": 115, "unit": "%"}, {"measurement": "viability, T/C", "setting": "second compound 10 µM, first compound 0.0316 µM", "value": 122, "unit": "%"}, {"measurement": "viability, T/C", "setting": "second compound 10 µM, first compound 0.1 µM", "value": 125, "unit": "%"}, {"measurement": "viability, T/C", "setting": "second compound 10 µM, first compound 0.316 µM", "value": 110, "unit": "%"}, {"measurement": "viability, T/C", "setting": "second compound 10 µM, first compound 1 µM", "value": 102, "unit": "%"}]}
